According to ChEMBL document CHEMBL2406943, “ABCB1 Structural Models, Molecular Docking, and Synthesis of New Oxadiazolothiazin-3-one Inhibitors” (ACS Med Chem Lett, 2013):

Target: MDR1 (ABCB1, P-glycoprotein) (Homo sapiens, UniProt P08183)
Assay: Inhibition of MDR1 in multidrug resistant human A2780/DX3 cells assessed as accumulation of doxorubicin at 5 times compound concentration that giving 5% antiproliferative activity after 4 hrs by cytofluorimetric assay relative to (Z)-8-(4-chlorophenyl)-5-methyl-8-(pent-2-enyl-oxy)-[1,2,4]oxadiazolo[3,4-c][1,4]thiazin-3(8H)-one
Type: cell-based, A2780 ADR
Conditions: probe doxorubicin

Chain of MDR1 (ABCB1, P-glycoprotein) (P08183 whole entry): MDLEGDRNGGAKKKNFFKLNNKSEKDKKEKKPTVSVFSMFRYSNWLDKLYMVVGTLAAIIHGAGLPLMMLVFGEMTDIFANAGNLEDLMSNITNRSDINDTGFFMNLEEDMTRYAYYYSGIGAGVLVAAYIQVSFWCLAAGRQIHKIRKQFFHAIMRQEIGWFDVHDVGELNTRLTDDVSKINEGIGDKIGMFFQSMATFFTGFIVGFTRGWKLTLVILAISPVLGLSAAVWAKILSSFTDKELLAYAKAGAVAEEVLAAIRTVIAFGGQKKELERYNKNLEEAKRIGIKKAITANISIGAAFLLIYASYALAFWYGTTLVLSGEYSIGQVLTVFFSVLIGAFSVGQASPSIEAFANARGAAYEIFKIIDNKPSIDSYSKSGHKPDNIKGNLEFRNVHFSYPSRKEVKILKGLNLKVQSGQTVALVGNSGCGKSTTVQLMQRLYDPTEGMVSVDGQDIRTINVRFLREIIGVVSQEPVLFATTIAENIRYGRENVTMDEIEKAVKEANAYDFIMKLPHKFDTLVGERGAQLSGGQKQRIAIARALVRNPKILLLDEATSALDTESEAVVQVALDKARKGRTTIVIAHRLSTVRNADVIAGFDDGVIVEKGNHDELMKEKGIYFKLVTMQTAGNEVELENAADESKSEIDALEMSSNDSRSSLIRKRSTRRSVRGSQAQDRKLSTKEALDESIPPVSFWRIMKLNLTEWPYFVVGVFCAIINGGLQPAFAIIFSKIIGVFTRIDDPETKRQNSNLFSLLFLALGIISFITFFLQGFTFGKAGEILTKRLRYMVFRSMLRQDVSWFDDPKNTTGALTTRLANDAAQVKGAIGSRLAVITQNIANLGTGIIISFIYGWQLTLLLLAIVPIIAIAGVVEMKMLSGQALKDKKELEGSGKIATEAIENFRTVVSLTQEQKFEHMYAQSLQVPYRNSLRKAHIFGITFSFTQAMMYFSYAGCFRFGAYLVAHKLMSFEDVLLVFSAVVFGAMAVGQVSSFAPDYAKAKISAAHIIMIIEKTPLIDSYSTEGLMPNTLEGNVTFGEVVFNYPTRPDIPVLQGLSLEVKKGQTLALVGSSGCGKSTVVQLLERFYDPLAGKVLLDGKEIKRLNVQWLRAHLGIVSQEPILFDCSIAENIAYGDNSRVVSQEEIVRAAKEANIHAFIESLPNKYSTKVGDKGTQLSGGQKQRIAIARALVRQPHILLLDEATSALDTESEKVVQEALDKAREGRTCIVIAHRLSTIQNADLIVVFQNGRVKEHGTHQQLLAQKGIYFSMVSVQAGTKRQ

Row | SMILES | inhibition at 4 h
1 | CC/C=C\CO[C@]1(c2ccc(Cl)cc2)SC=C(C)n2c1noc2=O | 48%
2 | CC/C=C\CO[C@@]1(c2ccc(Cl)cc2)SC=C(C)n2c1noc2=O | 136%
3 | CCCCCCOC1(c2ccc(Br)cc2)SC=C(C)n2c1noc2=O (racemic) | 72%
4 | CC/C=C/COC1(c2ccc(Cl)cc2)SC=C(C)n2c1noc2=O (racemic) | 35%
5 | CCC/C=C\COC1(c2ccc(Cl)cc2)SC=C(C)n2c1noc2=O (racemic) | 131%
6 | CCC/C=C/COC1(c2ccc(Cl)cc2)SC=C(C)n2c1noc2=O (racemic) | 109%
7 | CCCCCCOC1(c2ccc(Cl)cc2)SC=C(C)n2c1noc2=O (racemic) | 18%
8 | CC/C=C\COC1(c2ccc(Br)cc2)SC=C(C)n2c1noc2=O (racemic) | 139%
